Source: PubChem BioAssay (NCI)
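Compound exposure: 48 hours, 5 concentrations, 96-well plates. At the GI50, growth is halved. The concentration for full growth arrest is given as TGI.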

Experiments:
Assay in all cases: NCI tumour cell line growth inhibition, 48 h
786-0 renal = tested on: 786-0 renal
A498 renal = tested on: A498 renal
A549 NSCLC = tested on: A549 NSCLC
ACHN renal = tested on: ACHN renal
BT-549 breast = tested on: BT-549 breast
CAKI-1 renal = tested on: CAKI-1 renal
CCRF-CEM leukemia = tested on: CCRF-CEM leukemia
COLO 205 colon = tested on: COLO 205 colon
DU-145 prostate = tested on: DU-145 prostate
EKVX NSCLC = tested on: EKVX NSCLC
HCC-2998 colon = tested on: HCC-2998 colon
HCT-116 colon = tested on: HCT-116 colon
HCT-15 colon = tested on: HCT-15 colon
HL-60(TB) leukemia = tested on: HL-60(TB) leukemia
HOP-62 NSCLC = tested on: HOP-62 NSCLC
HOP-92 NSCLC = tested on: HOP-92 NSCLC
HS 578T breast = tested on: HS 578T breast
HT29 colon = tested on: HT29 colon
IGROV1 ovarian = tested on: IGROV1 ovarian
K-562 leukemia = tested on: K-562 leukemia
KM12 colon = tested on: KM12 colon
LOX IMVI melanoma = tested on: LOX IMVI melanoma
M14 melanoma = tested on: M14 melanoma
MALME-3M melanoma = tested on: MALME-3M melanoma
MCF7 breast = tested on: MCF7 breast
MDA-MB-231 breast = tested on: MDA-MB-231 breast
MDA-MB-435 = tested on: MDA-MB-435
MDA-MB-468 breast = tested on: MDA-MB-468 breast
MOLT-4 leukemia = tested on: MOLT-4 leukemia

N/C(=N\c1nc2ccccc2s1)NC(=O)Nc1ccccc1F showed a GI50 (786-0 renal) of 6.41 µM, a TGI (786-0 renal) of 22 µM and a GI50 (A498 renal) of 17.8 µM. The TGI (A498 renal) was 34.1 µM, the GI50 (A549 NSCLC) was 0.955 µM and the TGI (A549 NSCLC) was 26.6 µM. For the same compound, the GI50 (ACHN renal) was 2.45 µM, the TGI (ACHN renal) was 20.9 µM and the GI50 (BT-549 breast) was 0.477 µM. For the same compound, the TGI (BT-549 breast) was 26 µM, the GI50 (CAKI-1 renal) was 0.525 µM and the TGI (CAKI-1 renal) was 15.9 µM. It also gave a GI50 (CCRF-CEM leukemia) of 0.694 µM, a TGI (CCRF-CEM leukemia) greater than 100 µM and a GI50 (COLO 205 colon) of 1.27 µM. The TGI (COLO 205 colon) was 10.1 µM, the GI50 (DU-145 prostate) was 2.85 µM and the TGI (DU-145 prostate) was 15.6 µM. It also gave a GI50 (EKVX NSCLC) of 0.526 µM, a TGI (EKVX NSCLC) of 67.2 µM and a GI50 (HCC-2998 colon) of 1.68 µM. It also gave a TGI (HCC-2998 colon) of 23.1 µM, a GI50 (HCT-116 colon) of 0.462 µM and a TGI (HCT-116 colon) of 18.5 µM. It also gave a GI50 (HCT-15 colon) of 0.434 µM, a TGI (HCT-15 colon) greater than 100 µM and a GI50 (HL-60(TB) leukemia) of 0.385 µM. The TGI (HL-60(TB) leukemia) was 13.6 µM, the GI50 (HOP-62 NSCLC) was 0.829 µM and the TGI (HOP-62 NSCLC) was 15.6 µM. For the same compound, the GI50 (HOP-92 NSCLC) was 6.33 µM, the TGI (HOP-92 NSCLC) was 24.5 µM and the GI50 (HS 578T breast) was 0.513 µM. The TGI (HS 578T breast) was 19.5 µM, the GI50 (HT29 colon) was 0.369 µM and the TGI (HT29 colon) was 10.1 µM. The GI50 (IGROV1 ovarian) was 1 µM, the TGI (IGROV1 ovarian) was 25.2 µM and the GI50 (K-562 leukemia) was 0.307 µM. It also gave a TGI (K-562 leukemia) greater than 100 µM, a GI50 (KM12 colon) of 0.475 µM and a TGI (KM12 colon) of 37.6 µM. For the same compound, the GI50 (LOX IMVI melanoma) was 0.62 µM, the TGI (LOX IMVI melanoma) was 19.8 µM and the GI50 (M14 melanoma) was 0.4 µM. The TGI (M14 melanoma) was 20.8 µM, the GI50 (MALME-3M melanoma) was 1.21 µM and the TGI (MALME-3M melanoma) was 22.5 µM. For the same compound, the GI50 (MCF7 breast) was 0.424 µM, the TGI (MCF7 breast) was 20.5 µM and the GI50 (MDA-MB-231 breast) was 0.724 µM. The TGI (MDA-MB-231 breast) was 21.2 µM, the GI50 (MDA-MB-435) was 0.231 µM and the TGI (MDA-MB-435) was 0.68 µM. It also gave a GI50 (MDA-MB-468 breast) of 0.817 µM, a TGI (MDA-MB-468 breast) of 3.42 µM and a GI50 (MOLT-4 leukemia) of 0.57 µM. It also gave a TGI (MOLT-4 leukemia) of 69.8 µM.
